From patent US12661355B2, “Compounds and methods for inducing UCP1 expression” (The Regents of the University of California, priority 2020, dated 2026)

Experiments:
[1] = tested on: phospho-(Ser/Thr) PKA substrate; test: Phosphorylation of PKA substrates by Western blot in brown adipocytes; type: cell-based, mouse; details: overnight, 10 μM
Method: Cells and tissues were lysed in 10 mM Tris pH 7.5, 10 mM NaCl, 1 mM EDTA and 0.5% Triton X-100, supplemented with complete mini EDTA-free protease (Roche Diagnostics) and phosphatase (Cocktail 2 and 3, Sigma) inhibitors, followed by 10 second sonication. For analysis of mitochondrial proteins, mitochondria were isolated from cells by dual centrifugation, as described. Protein lysates were separated by SDS-PAGE and transferred to a nitrocellulose membrane. Transfer was confirmed by Ponceau staining (P7170, Sigma). After blocking in 5% milk, 0.1% Tween-20 in Tris-buffered saline (TBS), primary antibody was incubated overnight at 4° C. in 5% bovine serum albumin and 0.1% Tween-20 in TBS. Primary antibodies against ACTB (GTX109639, GeneTex), AKAP1 (5203, Cell Signaling), AKAP6 (07-087, Millipore), Cytochrome c (136F3, Cell Signaling), electron transport chain protein complexes (Total OXPHOS rodent WB antibody cocktail ab110413, Abcam), GAPDH (GTX100118, Genetex), active p38 MAPK (V1211, Promega), total p38 MAPK (8690, Cell Signaling), PGC1α (AB3242, Millipore), phospho-(Ser/Thr) PKA substrate (9621, Cell Signaling), PKA C-α (4782, Cell Signaling), PKA RII-β (ab75993, Abcam), and UCP1 (662045, Calbiochem) were used at 1:2000. […] Quantification using representative bands from the Ponceau staining was performed with ImageJ.

[2] = tested on: immortalized brown adipocytes; test: Cellular respiration (Seahorse) in immortalized brown adipocytes; type: cell-based, mouse; details: 10 μM
Method: Cellular respiration was measured using a Seahorse XF24 or XF96 analyzer (Agilent) following known protocols Immortalized brown adipocytes were differentiated in 6-well plates and replated in the Seahorse XF24 plates at a density of 50,000 cells per well using trypsin and collagenase type II. Cells were treated with vehicle (DMSO) or compounds for 18-24 h. Oxygen consumption rates were obtained before and after the sequential injection of 0.75 μM oligomycin, 0.5 μM FCCP, and 0.75 μM rotenone/myxothiazol. Results were normalized to total protein. For human white adipocytes, cells were cultured as described above and differentiated in XF96 microplates. DMSO or Z160 (10 μM) was added at day 17 and for 4 days. Oxygen consumption rates were measured before and after the sequential injection of 1 μM oligomycin, 1 μM FCCP, and 0.5 μM rotenone/antimycin A. For these cells, results were normalized to cell count determined by nuclei fluorescent staining with Hoescht staining imaged on Cytation 5 Imaging Reader and analysis with Gen5 software (BioTek). For both mouse and human cell lines, mitochondrial respiration was calculated by subtracting the non-mitochondrial respiration present after the last injection. Uncoupled respiration corresponds to the respiration difference between oligomycin and the last injections. Maximal respiration was determined after FCCP injection.

p38 MAPK = test: CETSA in brown adipocytes, p38 MAPK; type: binding, mouse; details: 10 μM for 8 h
Method: (§1) CETSA assays were performed according to known methods. Briefly, differentiated brown adipocytes (one 10 cm dish per treatment) were treated with vehicle or compounds, trypsinized, counted, and re-suspended in approximately 450 μl PBS containing protease inhibitors (volumes were adjusted to have the same number of cells in each treatment). For each sample, 18 μl was distributed into each of 7 PCR tubes. Samples were heated using a thermocycler with a temperature gradient (iCycler, Biorad) for 3 min, followed by 3 min at room temperature, and then snap-frozen in liquid N2. After two freeze-thaw cycles, samples were centrifuged at 20,000 g for 15 min at 4° C., and the supernatants were transferred to another set of tubes. Proteins were analyzed by immunoblotting.
(§2) The potential interaction of Z160 with PKA subunits and AKAPs was assessed first by identifying which PKA subunits and AKAP isoforms are normally present in BAT. […] To perform the CETSA assays, cultured brown adipocytes were incubated with 10 μM Z160 for 8 h, after which the thermal shift was analyzed by Western blot.

[3] = biological target: T1, PKA subunits (C-α and RII-β) (Mus musculus, UniProt P05132+P31324); test: CETSA in brown adipocytes, PKA subunits; type: binding; details: 10 μM for 8 h
T1 construct: endogenous in cells; host or cells: immortalized mouse brown adipocytes
Method: as §1
The PKA tetramer consists of two catalytic and two regulatory subunits. In the mouse, these are catalytic subunits C-α and C-β, and regulatory subunits RI and RII, each with α and β isoforms (RI-α, RI-β, RII-α, RII-β). […]
as §2

brown adipocytes = test: Lipolysis assay in brown adipocytes; type: cell-based, mouse; details: immortalized brown adipocytes, 10 μM overnight
Method: Lipolysis was assessed in cultured cells using medium collected over 3 h with the Adipolysis assay kit (AB100, Millipore), according to the manufacturer's protocol.

AKAP6 = biological target: T2, AKAP6 (Mus musculus, UniProt E9Q9K8); test: CETSA in brown adipocytes, AKAP6; type: binding; details: 10 μM for 8 h
T2 construct: endogenous in cells; host or cells: immortalized mouse brown adipocytes
Method: as §1, §2

[4] = biological target: T3, cGMP-dependent kinase 1 (PKG-1) (Mus musculus, UniProt P0C605); test: CETSA in brown adipocytes, PKG-1; type: binding; details: 10 μM for 8 h
T3 construct: endogenous in cells; host or cells: immortalized mouse brown adipocytes
Method: as §1, §2

T3 sequence (P0C605 whole entry): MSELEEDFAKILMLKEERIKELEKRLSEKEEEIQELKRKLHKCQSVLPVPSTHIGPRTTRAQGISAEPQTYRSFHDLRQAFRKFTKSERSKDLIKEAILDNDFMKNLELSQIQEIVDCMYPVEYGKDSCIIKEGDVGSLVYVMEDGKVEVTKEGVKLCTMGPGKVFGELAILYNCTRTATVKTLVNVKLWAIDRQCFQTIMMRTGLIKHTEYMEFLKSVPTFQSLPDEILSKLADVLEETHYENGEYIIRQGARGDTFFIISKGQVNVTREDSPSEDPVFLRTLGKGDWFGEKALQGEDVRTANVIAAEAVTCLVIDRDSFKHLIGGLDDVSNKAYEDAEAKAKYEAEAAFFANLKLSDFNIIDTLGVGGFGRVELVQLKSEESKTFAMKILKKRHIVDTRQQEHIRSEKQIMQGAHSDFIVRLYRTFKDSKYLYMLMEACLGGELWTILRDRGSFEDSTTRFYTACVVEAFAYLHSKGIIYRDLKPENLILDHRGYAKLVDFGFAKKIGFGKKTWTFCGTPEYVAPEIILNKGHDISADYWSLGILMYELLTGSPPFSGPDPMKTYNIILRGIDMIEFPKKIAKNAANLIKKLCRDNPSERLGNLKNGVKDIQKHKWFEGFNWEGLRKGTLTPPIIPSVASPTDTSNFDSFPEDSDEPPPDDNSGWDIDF
T2 sequence (E9Q9K8 1-2307): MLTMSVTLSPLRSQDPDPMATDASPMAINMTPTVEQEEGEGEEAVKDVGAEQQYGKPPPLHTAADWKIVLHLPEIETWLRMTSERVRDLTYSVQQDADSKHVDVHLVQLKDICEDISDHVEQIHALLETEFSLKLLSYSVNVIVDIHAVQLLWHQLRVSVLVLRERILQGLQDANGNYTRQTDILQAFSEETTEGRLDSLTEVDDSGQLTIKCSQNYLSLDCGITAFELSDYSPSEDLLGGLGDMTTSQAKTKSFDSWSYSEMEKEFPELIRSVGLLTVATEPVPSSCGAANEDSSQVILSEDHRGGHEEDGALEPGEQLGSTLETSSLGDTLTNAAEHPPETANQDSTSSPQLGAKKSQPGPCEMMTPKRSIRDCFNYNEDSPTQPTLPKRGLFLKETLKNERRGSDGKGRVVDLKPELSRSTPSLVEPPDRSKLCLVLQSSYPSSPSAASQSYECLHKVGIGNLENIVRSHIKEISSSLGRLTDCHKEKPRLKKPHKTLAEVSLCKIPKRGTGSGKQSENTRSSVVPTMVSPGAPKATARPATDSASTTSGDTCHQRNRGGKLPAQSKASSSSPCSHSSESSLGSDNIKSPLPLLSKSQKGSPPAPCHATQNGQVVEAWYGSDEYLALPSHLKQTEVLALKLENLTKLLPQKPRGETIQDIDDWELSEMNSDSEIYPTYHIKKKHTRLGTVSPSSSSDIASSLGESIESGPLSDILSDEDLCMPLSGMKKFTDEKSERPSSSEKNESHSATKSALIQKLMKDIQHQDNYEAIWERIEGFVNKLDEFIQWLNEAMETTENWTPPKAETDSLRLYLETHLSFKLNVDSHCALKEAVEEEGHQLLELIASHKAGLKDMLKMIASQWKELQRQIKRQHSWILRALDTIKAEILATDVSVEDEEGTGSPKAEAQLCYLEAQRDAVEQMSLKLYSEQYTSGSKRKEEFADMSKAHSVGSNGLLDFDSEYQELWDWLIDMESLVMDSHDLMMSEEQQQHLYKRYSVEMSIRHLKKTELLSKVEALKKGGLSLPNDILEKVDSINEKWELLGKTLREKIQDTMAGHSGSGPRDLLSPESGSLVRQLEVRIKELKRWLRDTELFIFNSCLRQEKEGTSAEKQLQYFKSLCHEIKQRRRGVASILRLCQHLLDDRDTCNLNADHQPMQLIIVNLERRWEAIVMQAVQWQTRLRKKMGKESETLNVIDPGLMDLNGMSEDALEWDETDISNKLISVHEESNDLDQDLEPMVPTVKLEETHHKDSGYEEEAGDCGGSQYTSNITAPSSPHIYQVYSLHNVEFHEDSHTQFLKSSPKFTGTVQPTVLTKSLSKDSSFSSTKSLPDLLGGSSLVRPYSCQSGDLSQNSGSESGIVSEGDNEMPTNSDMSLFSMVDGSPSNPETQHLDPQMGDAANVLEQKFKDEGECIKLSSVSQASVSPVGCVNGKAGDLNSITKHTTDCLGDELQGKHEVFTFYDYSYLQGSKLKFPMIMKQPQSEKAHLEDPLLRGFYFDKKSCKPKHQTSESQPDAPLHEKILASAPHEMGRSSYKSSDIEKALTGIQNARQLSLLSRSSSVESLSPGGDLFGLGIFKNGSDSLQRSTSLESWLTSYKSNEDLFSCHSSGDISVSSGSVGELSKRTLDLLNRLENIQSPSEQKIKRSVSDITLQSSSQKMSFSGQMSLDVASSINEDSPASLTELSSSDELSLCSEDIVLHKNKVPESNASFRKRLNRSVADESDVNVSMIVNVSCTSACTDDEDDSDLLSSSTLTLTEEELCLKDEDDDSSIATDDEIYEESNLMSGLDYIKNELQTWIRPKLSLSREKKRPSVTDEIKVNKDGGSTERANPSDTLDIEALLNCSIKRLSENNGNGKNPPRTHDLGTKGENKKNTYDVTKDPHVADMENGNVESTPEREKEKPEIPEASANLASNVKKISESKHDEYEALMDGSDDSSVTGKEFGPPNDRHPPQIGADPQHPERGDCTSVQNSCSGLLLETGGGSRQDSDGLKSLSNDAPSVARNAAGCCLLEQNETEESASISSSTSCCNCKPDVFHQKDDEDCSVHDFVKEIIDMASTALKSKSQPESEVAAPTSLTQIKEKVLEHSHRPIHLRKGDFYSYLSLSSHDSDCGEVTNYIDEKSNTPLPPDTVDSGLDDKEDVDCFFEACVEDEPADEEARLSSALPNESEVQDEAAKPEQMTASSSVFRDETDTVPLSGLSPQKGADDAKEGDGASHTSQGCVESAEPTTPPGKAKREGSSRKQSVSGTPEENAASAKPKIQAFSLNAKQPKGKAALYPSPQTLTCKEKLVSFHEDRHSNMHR

Row | SMILES | phosphorylation of PKA substrates [1] | maximal respiration [2] | mitochondrial respiration [2] | uncoupled respiration [2] | heat stability of p38 MAPK (p38 MAPK) | denaturation (thermal shift) of PKA subunits C-α and RII-β [3] | lipolysis (brown adipocytes) | heat stability of AKAP6 (AKAP6) | heat stability of PKG-1 [4]
1 | O=C(CSc1nc2ccccc2c(=O)[nH]1)Nc1ccc2c(c1)OCCO2 [AST070, N-(2,3-dihydro-1,4-benzodioxin-6-yl)-2-[(4-oxo-3,4-dihydroquinazolin-2-yl)sulfanyl]acetamide] | increased the levels of phosphorylation | significantly elevated | increased | increased | – | – | – | – | –
2 | COc1ccc(NC(=O)CSc2nc3ccccc3c(=O)[nH]2)c(OC)c1 [Z160] | increased the levels of phosphorylation | showed the same trend | increased | increased | did not influence the heat stability | did not show differences in denaturation | induced lipolysis | did not influence the heat stability | did not influence the heat stability
